In patent US20250215013A1, “SUBSTITUTED TRICYCLIC COMPOUNDS AS PARP INHIBITORS AND THE USE THEREOF” (IMPACT THERAPEUTICS (SHANGHAI), INC., priority 2022, published 2025) one finds IC50 data, which are given here for 18 compounds.

SMILES strings stand for the structures.

Assay [1] concerns the target recombinant poly(ADP-ribose) polymerase 2 (PARP2). Kind of assay: PARP2 chemiluminescent assay. Format: biochemical. Particulars: inhibition of PARP2 enzyme activity, chemiluminescence.
Assay [2] has as its system MDA-MB-436 cells. Kind of assay: Growth inhibition assay against BRCA mutant human breast cancer MDA-MB-436 cell line (CCK-8). The class given is cell-based. The note with it: proliferation of MDA-MB-436 cells, 7 days.
Assay [3] has as its target recombinant poly(ADP-ribose) polymerase 1 (PARP1) (Homo sapiens (Human), UniProt P09874).

Chain of recombinant poly(ADP-ribose) polymerase 1 (PARP1) (P09874 whole entry): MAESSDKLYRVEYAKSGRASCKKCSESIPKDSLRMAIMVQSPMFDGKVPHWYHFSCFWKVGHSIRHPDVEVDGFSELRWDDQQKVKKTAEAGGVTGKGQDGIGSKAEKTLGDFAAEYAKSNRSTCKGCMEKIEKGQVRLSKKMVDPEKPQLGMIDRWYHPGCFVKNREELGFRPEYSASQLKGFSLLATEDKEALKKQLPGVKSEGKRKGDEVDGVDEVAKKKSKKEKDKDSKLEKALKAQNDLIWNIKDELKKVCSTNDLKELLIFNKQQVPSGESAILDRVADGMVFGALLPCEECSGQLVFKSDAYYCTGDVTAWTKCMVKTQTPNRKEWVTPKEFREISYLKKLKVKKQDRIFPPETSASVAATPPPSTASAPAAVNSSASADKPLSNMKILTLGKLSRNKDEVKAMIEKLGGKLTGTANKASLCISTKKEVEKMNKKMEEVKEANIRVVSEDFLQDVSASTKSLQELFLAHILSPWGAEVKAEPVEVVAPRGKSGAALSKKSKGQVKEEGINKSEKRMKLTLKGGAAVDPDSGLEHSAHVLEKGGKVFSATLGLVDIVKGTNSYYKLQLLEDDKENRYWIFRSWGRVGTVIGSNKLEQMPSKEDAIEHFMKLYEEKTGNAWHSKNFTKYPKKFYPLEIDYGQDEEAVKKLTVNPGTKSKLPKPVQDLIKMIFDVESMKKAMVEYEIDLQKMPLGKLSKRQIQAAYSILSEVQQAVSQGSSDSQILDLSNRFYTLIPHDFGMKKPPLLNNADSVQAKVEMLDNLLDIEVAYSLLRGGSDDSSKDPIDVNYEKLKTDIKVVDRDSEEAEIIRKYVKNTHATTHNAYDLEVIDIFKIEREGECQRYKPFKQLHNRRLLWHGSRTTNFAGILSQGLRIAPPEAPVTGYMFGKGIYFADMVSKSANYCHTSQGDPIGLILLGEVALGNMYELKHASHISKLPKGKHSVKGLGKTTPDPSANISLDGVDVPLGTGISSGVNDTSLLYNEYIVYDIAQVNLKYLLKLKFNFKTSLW

Take `[2H]C([2H])([2H])NC(=O)c1ccc(N2CCN(Cc3ccc4c([nH]c(=O)c5c(F)cnn54)c3F)CC2)c(F)n1` [Example 185, 7-((4-(2-fluoro-6-((methyl-d3)carbamoyl)pyridin-3-yl)piperazin-1-yl)methyl)-3,6-difluoropyrazolo[1,5-a]quinoxalin-4(5H)-one]: the IC50 (in general, the point on the concentration scale where inhibition reaches its midpoint) in assay [1] was found to be 431 nM; in assay [2] (Homo sapiens, MDA-MB-436, […]), 0.78 nM; in assay [3], 0.24 nM.
Taken in the same sequence, the figures for `CNC(=O)c1ccc(N2CCN(Cc3ccc4c([nH]c(=O)c5c(F)cnn54)c3F)CC2)c(Cl)n1` [Example 178, 7-((4-(2-chloro-6-(methylcarbamoyl)pyridin-3-yl)piperazin-1-yl)methyl)-3,6-difluoropyrazolo[1,5-a]quinoxalin-4(5H)-one] were 1390 nM, 0.79 nM and 0.28 nM.
The like results for `CNC(=O)c1ccc(N2CCN(Cc3cc(F)c4c(c3)[nH]c(=O)n3cc(C)nc43)CC2)c(C)n1` [Example 136, 8-((4-(2-methyl-6-(methylcarbamoyl)pyridin-3-yl)piperazin-1-yl)methyl)-2-methyl-10-fluoroimidazo[1,2-c]quinazolin-5(6H)-one] were, in that order, 931 nM, 1.04 nM and 1.77 nM.
Taken in the same sequence, the figures for `Cc1nc(C(=O)NC2CC2)ccc1N1CCN(Cc2ccc3c([nH]c(=O)n4ccnc34)c2F)CC1` [Example 65, 8-((4-(2-methyl-6-(cyclopropylcarbamoyl)pyridin-3-yl)piperazin-1-yl)methyl)-7-fluoroimidazo[1,2-c]quinazolin-5(6H)-one] were more than 10000 nM, 53.8 nM and 4.53 nM.
Turning to `CNC(=O)c1ccc(N2CCN(Cc3ccc4c([nH]c(=O)c5c(C)cnn54)c3F)C[C@H]2C)c(F)n1` [Example 166, (R)-6-fluoro-7-((4-(2-fluoro-6-(methylcarbamoyl)pyridin-3-yl)-3-methylpiperazin-1-yl)methyl)-3-methylpyrazolo[1,5-a]quinoxalin-4(5H)-one], the IC50 in assay [1] was determined as 801 nM; in assay [2] (Homo sapiens, MDA-MB-436, […]) it was 16.2 nM; in assay [3], 0.21 nM.
For `CNC(=O)c1ccc(N2CCN(C(C)c3ccc4c([nH]c(=O)c5c(C)cnn54)c3F)CC2)c(F)n1` (stereo not drawn) [Example 204, 6-fluoro-7-(1-(4-(2-fluoro-6-(methylcarbamoyl)pyridin-3-yl)piperazin-1-yl)ethyl)-3-methylpyrazolo[1,5-a]quinoxalin-4(5H)-one], the IC50 in assay [1] was more than 10000 nM; in assay [2] (Homo sapiens, MDA-MB-436, […]), 12.1 nM; in assay [3], 0.68 nM.
Turning to `CNC(=O)c1ccc(N2CCN(Cc3cc4[nH]c(=O)c5occc5c4cc3C)CC2)c(F)n1` [Example 104, 7-((4-(2-fluoro-6-(methylcarbamoyl)pyridin-3-yl)piperazin-1-yl)methyl)-8-methylfuro[2,3-c]quinolin-4(5H)-one], the IC50 in assay [1] stood at 487 nM; in assay [2] (Homo sapiens, MDA-MB-436, […]) it was 32 nM; in assay [3], 5.85 nM.
Taken in the same sequence, the figures for `CNC(=O)c1ccc(N2CCN(Cc3ccc4c(c3)[nH]c(=O)c3ocnc34)CC2)c(C)n1` [Example 14, 7-((4-(2-methyl-6-(methylcarbamoyl)pyridin-3-yl)piperazin-1-yl)methyl)oxazolo[5,4-c]quinolin-4(5H)-one] were more than 10000 nM, 21.3 nM and 1.86 nM.
On to `CNC(=O)c1ccc(N2CCN(Cc3cc(F)c4c(c3)[nH]c(=O)c3cncn34)CC2)c(Cl)n1` [Example 54, 7-((4-(2-chloro-6-(methylcarbamoyl)pyridin-3-yl)piperazin-1-yl)methyl)-9-fluoroimidazo[1,5-a]quinoxalin-4(5H)-one], for which the 50% inhibitory concentration (IC50) in assay [1] was 648 nM; in assay [2] (Homo sapiens, MDA-MB-436, […]), 5.85 nM; in assay [3], 0.52 nM.
With `O=C(NC1CC1)c1ccc(N2CCN(Cc3ccc4c([nH]c(=O)n5ccnc45)c3F)CC2)c(F)n1` [Example 64, 8-((4-(2-fluoro-6-(cyclopropylcarbamoyl)pyridin-3-yl)piperazin-1-yl)methyl)-7-fluoroimidazo[1,2-c]quinazolin-5(6H)-one], the 50% inhibitory concentration (IC50) worked out at 5450 nM in assay [1]; 52.6 nM in assay [2] (Homo sapiens, MDA-MB-436, […]); 2.73 nM in assay [3].
`CNC(=O)c1ccc(N2CCN(Cc3ccc4c([nH]c(=O)n5nccc45)c3F)CC2)c(C)n1` [Example 72, 8-((4-(2-methyl-6-(methylcarbamoyl)pyridin-3-yl)piperazin-1-yl)methyl)-7-fluoropyrazolo[1,5-c]quinazolin-5(6H)-one]: the IC50 in assay [1] was found to be 1830 nM; in assay [2] it was 29 nM; in assay [3], 1.08 nM.
`CNC(=O)c1ccc(N2CCN(Cc3cc4[nH]c(=O)c5cn(C)nc5c4cc3F)CC2)c(F)n1` [Example 91, 7-((4-(2-fluoro-6-(methylcarbamoyl)pyridin-3-yl)piperazin-1-yl)methyl)-8-fluoro-2-methyl-2,5-dihydro-4H-pyrazolo[4,3-c]quinolin-4-one]: the IC50 in assay [1] came to 942 nM; in assay [2] (Homo sapiens, MDA-MB-436, […]), 20.8 nM; in assay [3], 4.25 nM.
Consider `CNC(=O)c1ccc(N2CCN(Cc3cc(F)c4c(c3)[nH]c(=O)c3cncn34)CC2)c(F)n1` [Example 53, 7-((4-(2-fluoro-6-(methylcarbamoyl)pyridin-3-yl)piperazin-1-yl)methyl)-9-fluoroimidazo[1,5-a]quinoxalin-4(5H)-one], for which the half-inhibitory concentration (IC50) in assay [1] is 469 nM; in assay [2] (Homo sapiens, MDA-MB-436, […]), 2.01 nM; in assay [3], 0.25 nM.
For the compound `CNC(=O)c1ccc(N2CCN(Cc3ccc4c(c3)[nH]c(=O)c3c4cnn3C)CC2)c(C)n1` [Example 71, 7-((4-(2-methyl-6-(methylcarbamoyl)pyridin-3-yl)piperazin-1-yl)methyl)-3-methyl-3,5-dihydro-4H-pyrazolo[3,4-c]quinolin-4-one], the IC50 in assay [1] amounted to 636 nM; in assay [2] (Homo sapiens, MDA-MB-436, […]) it was 11 nM; in assay [3] it was 3.3 nM.
The like results for `CNC(=O)c1ccc(N2CCN(Cc3ccc4c([nH]c(=O)c5cn[nH]c54)c3F)CC2)c(C)n1` [Example 45, 7-((4-(2-methyl-6-(methylcarbamoyl)pyridin-3-yl)piperazin-1-yl)methyl)-6-fluoro-1,5-dihydro-4H-pyrazolo[4,3-c]quinolin-4-one] were, in that order, 278 nM, 9.02 nM and 0.64 nM.
The like results for `CNC(=O)c1ccc(N2CCN(Cc3ccc4c(c3)[nH]c(=O)c3cn(C)nc34)CC2)c(C)n1` [Example 9, 7-((4-(2-methyl-6-(methylcarbamoyl)pyridin-3-yl)piperazin-1-yl)methyl)-2-methyl-2,5-dihydro-4H-pyrazolo[4,3-c]quinolin-4-one] were, in that order, 3280 nM, 3.2 nM and 2.45 nM.
The like results for `CNC(=O)c1ccc(N2CCN(Cc3ccc4c([nH]c(=O)c5cc(C)nn54)c3F)CC2)c(Cl)n1` [Example 151, 7-((4-(2-chloro-6-(methylcarbamoyl)pyridin-3-yl)piperazin-1-yl)methyl)-6-fluoro-2-methylpyrazolo[1,5-a]quinoxalin-4(5H)-one] were, in that order, 1210 nM, 1.19 nM and 0.5 nM.
`CNC(=O)c1ccc(N2CCN(Cc3ccc4c([nH]c(=O)c5cncn54)c3F)CC2)c(Cl)n1` [Example 56, 7-((4-(2-chloro-6-(methylcarbamoyl)pyridin-3-yl)piperazin-1-yl)methyl)-6-fluoroimidazo[1,5-a]quinoxalin-4(5H)-one]: the IC50 turned out to be 1570 nM in assay [1]; 4.08 nM in assay [2] (Homo sapiens, MDA-MB-436, […]); 0.68 nM in assay [3].
